# Measurements published in patent publication US4283394A, “Cytotoxic nucleoside-corticosteroid phosphodiesters” (priority 1979, dated 1981).
# How the values were obtained:
# [1] = system: phosphodiesterase I from Crotalus adamenteus; assay: Enzymatic cleavage of the phosphodiester bond by phosphodiesterase I; format: in vitro ADME; details: pH 8.8, 24 h, 37° C.; for hydrolysis by phosphodiesterase I: 5 μmol conjugate, 1.5 mg enzyme
# Method: (§1) Enzymatic cleavage of the phosphodiester bond of the conjugates was studied by incubating the conjugates (5 μmol) with various enzymes (1.5-3 mg) in appropriate buffer and with plasma (final volume 0.5 ml). An aliquot (200 μl) of the 24 h incubation mixtures was streaked on Whatman 3 MM paper (23×57 cm) with the authentic markers and the paper was developed in Solvent A. The bands were characterized and analyzed semi-quantitatively by UV estimation of the chromatographs. […] The conjugates also remained 60-85 percent intact during the incubation with baboon plasma at 37° C. for 24 h. From the results of these tests, conjugates of this type appear capable of serving as sustained release froms of the parent steroid and nucleoside components thereof.
# The conjugate (5 μmol) was incubated with 1 M Tris-HCl, pH 8.8 (0.05 ml) and purified phosphodiesterase I from Crotalus adamenteus (1.5 mg., Sigma Chemical Co.) in 0.45 ml. of H2 O for 24 h at 37° C.
# [2] = system: crude Crotalus adamenteus venom; format: in vitro ADME; details: 2.5 mg crude venom, 24 h, 37° C.
# Method: as §1
# [3] = system: 5'-nucleotidase from Crotalus adamenteus; assay: Enzymatic cleavage by 5'-nucleotidase; format: in vitro ADME; details: pH 9.0, 24 h, 37° C.; for hydrolysis by 5'-nucleotidase: 2 mg enzyme
# Method: as §1
# The conjugate (5 μmol) was incubated with 1 M Tris-HCl, pH 9.0 and 0.05 M MgSO4 (0.05 ml) and purified 5'-nucleotidase from Crotalus adamenteus (2 mg., Sigma Chemical Co.) in 0.45 ml. of H2 O for 24 h at 37° C.
# [4] = system: crude wheat germ acid phosphatase; assay: Enzymatic cleavage by acid phosphatase; format: in vitro ADME; details: pH 4.8, 25° C., 24 h; for percent hydrolyzed by acid phosphatase: 3 mg enzyme
# Method: as §1
# The conjugate (5 μmol) was incubated with 0.15 M NaOAc, pH 4.8 (0.05 ml) and crude wheat germ acid phosphatase (3 mg., Sigma Chemical Co.) in 0.45 ml. of H2 O at 25° C. for 24 h. Pred-p-ara-C (I) was 86 percent hydrolyzed, the products being pred-p-ara-C (8 percent), ara-CMP (5 percent), ara-C (42 percent) and prednisolone (45 percent). Prednisone-p-ara-C (II) was 88 percent hydrolyzed, the products being prednisone-p-ara-C (7 percent), ara-CMP (4 percent), ara-C (43 percent) and prednisone (46 percent).
# [5] = system: mouse leukemia L-1210 cells; assay: Antiproliferative activity in vitro, viability of L-1210 cells in culture; format: cell-based; details: for antiproliferative activity compared with ara-CMP and ara-C: 72 h; for IC50: Mus musculus, L1210, 72 h, read-out: Concentration (μM) for 50 percent loss of viability at 72 hours (ED50)
# Method: The antiproliferative activity of the conjugates, ara-C, ara-CMP and the steroids was determined by measuring their effects against mouse leukemia L-1210 cells in culture. The assay was performed in test tubes without agitation according to the procedure described by Hong et al. in J. Med. Chem. 16: 139 (1973). After 24, 48 and 72 h, viable cell counts were performed on the cultures which had been incubated with compounds in various concentrations and the concentration of each compound required to produce a 50 percent inhibition of growth (ED50) after 72 h was determined by interpolation using the method described by Tritsch et al. in Cancer Biochem. Biophys. 2: 87 (1977).
# [6] = system: i.p. implanted L-1210 leukemia; assay: Antitumor activity against i.p. implanted L-1210 leukemia in mice; format: in vivo; details: for response vs control in vivo at 25 mg/kg: read-out: Percent T/C (mean survival days treated/control × 100), 25 mg/kg/day × 5 i.p.; for response vs control in vivo at 50 mg/kg: read-out: Percent T/C (mean survival days treated/control × 100), 50 mg/kg/day × 5 i.p.; for response vs control in vivo at 75 mg/kg: read-out: Percent T/C (mean survival days treated/control × 100), 75 mg/kg/day × 5 i.p.; for response vs control in vivo at 100 mg/kg: read-out: Percent T/C (mean survival days treated/control × 100), 100 mg/kg/day × 5 i.p.; for ascitic fluid at the end of the dosage period (5th day) / day on which mice started to accumulate ascitic fluid: doses between 25 and 75 mg/kg/day
# Method: The ascites cell form of L-1210 leukemia, grown in C3 D2 F1 /J female mice (supplied by Jackson Labs) were employed. The assay was performed according to National Cancer Institute (NCI) protocol 1.100 described by R. I. Gerau et al., Cancer Chemother. Rep. (Part 3) 3: (2): 7, 47 (1972) with a slight modification. Intraperitoneal implantation of 1×10^6 cells in 0.5-ml suspension to the control and the treated groups (each group comprised 8 C3 D2 F1 /J female mice, average wt 20 g) was carried out using donor mice (DBA/2Ha, supplied by Roswell Park Memorial Institute) bearing 3 day tumor growths. Compounds were dissolved in 0.9 percent NaCl and a 0.5 ml dose was administered intraperitoneally once daily. Treatment began 24 h after implantation and continued for 5 consecutive days. Control animals received a 0.5 ml injection of saline. Testing was followed as described in the NCI protocol and evaluated by recording the survival time according to the formula appearing in protocol 11.
# [7] = system: i.p. implanted L1210 leukemia; assay: Comparison of conjugates and ara-C plus steroid combinations, i.p. implanted L1210 leukemic mice; format: in vivo
# Method: Each mouse received 1×10^6 cells intraperitoneally. Doses were administered i.p. once daily to groups of 8 mice (avg. wt. 20 g) for 5 consecutive days beginning 24 hours after tumor implantation. In case of the combination, ara-C and the steroid were given at the same molar concentrations present in the conjugates. Mean survival days were calculated by the equation appearing in the NCI protocol; T/C ratios are reported in percent, i.e (treated/control)×100.
# [8] = system: intracerebrally implanted L-1210; assay: Antitumor activity against intracerebrally (i.c.) implanted L-1210 in mice; format: in vivo; details: 50 mg/kg/day × 5 i.p.; for Survivors on day 35: groups of 8 mice; for Percent T/C: values as of 35th day
# Method: Effects of the conjugate on i.c. implanted L-1210 in mice were also studied. A mouse (C3 D2 F1 /J, female, avg. wt. 20 g) was anesthesized with diethyl ether, the right parietal scalp was washed with 70 percent ethanol, a 27 G 1/2 needle with a guard placed on the outside of the barrel 1.5 mm from the top of the bevel, was inserted through the skull and 1×10^5 cells in 0.05 ml suspension were inoculated into the mouse. The conjugate in 0.9 percent NaCl (0.5 ml) was administered intraperitoneally once daily. Treatment began 24 h after implantation and continued for 5 consecutive days. Control animals received a 0.5 ml injection of saline. Testing was followed as described in the NCI protocol and evaluated by recording the survival time according to the formula appearing in protocol 11.
SMILES,hydrolysis by phosphodiesterase I [1],product ara-C [1],product ara-CMP [1],product prednisolone or prednisone [1],hydrolysis by crude snake venom [2],product ara-C [2],product steroid [2],hydrolysis by 5'-nucleotidase [3],product ara-C [3],product prednisolone or prednisone [3],percent hydrolyzed by acid phosphatase [4],product ara-C [4],product ara-CMP [4],product steroid (prednisolone or prednisone) [4],remaining conjugate among products [4],antiproliferative activity compared with ara-CMP and ara-C [5],IC50 [5],"Mean Survival Days, Treated ([6]; 25 mg/kg/day × 5 i.p.)",Percent T/C (mean survival days treated/control × 100) ([6]; 25 mg/kg/day × 5 i.p.),"Mean Survival Days, Treated ([6]; 50 mg/kg/day × 5 i.p.)",further results
"C[C@]12C=CC(=O)C=C1CC[C@@H]1[C@@H]2C(=O)C[C@@]2(C)[C@H]1CC[C@]2(O)C(=O)CO[P+]([O-])(O)OC[C@H]1O[C@@H](n2ccc(N)nc2=O)[C@@H](O)[C@@H]1O (stereo partly drawn) [Prednisone-p-ara-C (II), 5'-(Prednisone-21-phosphoryl)-1-β-D-arabinofuranosylcytosine]",hydrolyzed completely,10%,40%,50%,hydrolyzed completely,50%,50%,hydrolyzed completely,50%,50%,88%,43%,4%,46%,7%,less active than both ara-CMP and ara-C,0.5 µM,14.63 days,154%,18.13 days,"Percent T/C (mean survival days treated/control × 100) ([6]; 50 mg/kg/day × 5 i.p.): 210%; Mean Survival Days, Treated ([6]; 75 mg/kg/day × 5 i.p.): 14.50 days; Mean Survival Days, Treated ([6]; 100 mg/kg/day × 5 i.p.): 10.88 days; Percent T/C (mean survival days treated/control × 100) ([6]; 100 mg/kg/day × 5 i.p.): 124%; Mean Survival Days, Treated ([6]; 200 mg/kg/day × 5 i.p.): 9.13 days; response vs control in vivo at 25 mg/kg ([6]; Mus musculus, L1210, ip): 154%; response vs control in vivo at 50 mg/kg ([6]; Mus musculus, L1210, ip): 210%; response vs control in vivo at 75 mg/kg ([6]; Mus musculus, L1210, ip): 153%; response vs control in vivo at 100 mg/kg ([6]; Mus musculus, L1210, ip): 124%; response vs control in vivo at 200 mg/kg ([6]; Mus musculus, L1210, ip, read-out: Percent T/C (mean survival days treated/control × 100), 200 mg/kg/day × 5 i.p.): 104%; ascitic fluid at the end of the dosage period (5th day) [6]: no ascitic fluid; day on which mice started to accumulate ascitic fluid [6]: 15 days; Survival Days Mean (Treated) ([7]; 75.4 μmole/kg/day × 5): 18.13 days; Weight change on Day 8 (g/mouse) ([7]; 75.4 μmole/kg/day × 5): -0.30 g/mouse; response vs control in vivo at 75.4 µmol/kg ([7]; Mus musculus, L1210, ip, 75.4 μmole/kg/day × 5, read-out: % T/C): 210%; Mean Survival Days [8]: 16.50 days; body weight lost by day 11 [8]: about 4 g; Survivors on day 35 [8]: 1; Percent T/C [8]: 183.3%; Percent T/C ([8]; listed as II): 183%"
"C[C@]12C=CC(=O)C=C1CC[C@@H]1[C@@H]2[C@@H](O)C[C@@]2(C)[C@H]1CC[C@]2(O)C(=O)CO[P+]([O-])(O)OC[C@H]1O[C@@H](n2ccc(N)nc2=O)[C@@H](O)[C@@H]1O (stereo partly drawn) [Pred-p-ara-C (I), 5'-(Prednisolone-21-phosphoryl)-1-β-D-arabinofuranosylcytosine]",hydrolyzed completely,10%,40%,50%,hydrolyzed completely,50%,50%,hydrolyzed completely,50%,50%,86%,42%,5%,45%,8%,activity comparable to ara-CMP,0.05 µM,14.63 days,154%,19.13 days,"Mean Survival Days, Treated ([6]; 40 mg/kg/day × 5 i.p.): 15.25 days; Mean Survival Days, Treated ([6]; 75 mg/kg/day × 5 i.p.): 16.88 days; Mean Survival Days, Treated ([6]; 100 mg/kg/day × 5 i.p.): 11.74 days; response vs control in vivo at 25 mg/kg ([6]; Mus musculus, L1210, ip): 154%; response vs control in vivo at 40 mg/kg ([6]; Mus musculus, L1210, ip, read-out: Percent T/C (mean survival days treated/control × 100), 40 mg/kg/day × 5 i.p.): 174%; response vs control in vivo at 50 mg/kg ([6]; Mus musculus, L1210, ip): 201%; response vs control in vivo at 75 mg/kg ([6]; Mus musculus, L1210, ip): 178%; response vs control in vivo at 100 mg/kg ([6]; Mus musculus, L1210, ip): 136%; ascitic fluid at the end of the dosage period (5th day) [6]: no ascitic fluid; day on which mice started to accumulate ascitic fluid [6]: 15 days; Survival Days Mean (Treated) ([7]; 75.0 μmole/kg/day × 5): 19.13 days; Weight change on Day 8 (g/mouse) ([7]; 75.0 μmole/kg/day × 5 (each, for combinations)): -0.28 g/mouse; T/C ([7]; 114.7 μmol/kg/day): 178%; response vs control in vivo at 75 µmol/kg ([7]; Mus musculus, L1210, ip, 75.0 μmole/kg/day × 5, read-out: % T/C): 201%; Mean Survival Days [8]: 18.13 days; body weight lost by day 11 [8]: about 4 g; weight gained over original weight (20 g) by day 20 [8]: about 1 g; Survivors on day 35 [8]: 1; Percent T/C [8]: 201.4%; Percent T/C ([8]; listed as I): 201%"
